Literature values, collected in patent publication US7847105B2, “Methods and compounds for preparing CC-1065 analogs” (Medarex, Inc., priority 2005, dated 2010).

How the values were obtained:
[1] = both in vitro and in experimental animals
experimental animals = conditions: reason why it cannot be used in humans

CC-1065
antitumor and antimicrobial activity [1]: potent antitumor and antimicrobial activity | toxicity in experimental animals (experimental animals): causes delayed death
